According to ChEMBL document CHEMBL1201862, “PubChem BioAssay data set” (2004):
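Assay format: 96-well plates, 48-hour exposure. The concentration for 50% growth inhibition is given as GI50.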 The source made the active and inactive calls. Cut-off read from the data, not from the text of the source: active = GI50 up to about 1.1 µM and inactive = higher.

Legend:
Assay in all cases: NCI tumour cell line growth inhibition, 48 h
EKVX = test system: EKVX
HCC 2998 = test system: HCC 2998
HCT-15 = test system: HCT-15
HL-60 = test system: HL-60
HOP-62 = test system: HOP-62
HOP-92 = test system: HOP-92
IGROV-1 = test system: IGROV-1
LOX IMVI = test system: LOX IMVI
M14 = test system: M14
MDA-MB-435 = test system: MDA-MB-435
NCI-H226 = test system: NCI-H226
NCI-H23 = test system: NCI-H23
NCI/ADR-RES = test system: NCI/ADR-RES
OVCAR-4 = test system: OVCAR-4
OVCAR-8 = test system: OVCAR-8
RXF 393 = test system: RXF 393
SK-MEL-28 = test system: SK-MEL-28
SN12C = test system: SN12C
UACC-62 = test system: UACC-62
UO-31 = test system: UO-31

SMILES | GI50 (EKVX) | GI50 (HCC 2998) | GI50 (HCT-15) [nM] | GI50 (HL-60) | GI50 (HOP-62) | GI50 (HOP-92) | GI50 (IGROV-1) | GI50 (LOX IMVI) | GI50 (M14) | GI50 (MDA-MB-435) | GI50 (NCI-H226) | GI50 (NCI-H23) | GI50 (NCI/ADR-RES) | GI50 (OVCAR-4) | GI50 (OVCAR-8) | GI50 (RXF 393) | GI50 (SK-MEL-28) | GI50 (SN12C) | GI50 (UACC-62) | GI50 (UO-31)
OC1CC2CCC(C1)N2CCCN1c2ccccc2Sc2ccc(Cl)cc21 (stereo not given) | 3720 nM (inactive) | 338 nM (active) | 2490 | 2260 nM (inactive) | 4730 nM (inactive) | 2500 nM (inactive) | 1980 nM (inactive) | 1700 nM (inactive) | 1810 nM (inactive) | 1730 nM (inactive) | 5940 nM (inactive) | 3130 nM (inactive) | 2360 nM (inactive) | 3690 nM (inactive) | 2110 nM (inactive) | 1740 nM (inactive) | 1810 nM (inactive) | 3730 nM (inactive) | 1640 nM (inactive) | 2460 nM (inactive)
COc1ccc(OC)c(/C=C/c2cnnc3ccccc23)c1 | 4150 nM (inactive) | 5270 nM (inactive) | 1960 | 2790 nM (inactive) | 4120 nM (inactive) | 3890 nM (inactive) | > 10000 nM (inactive) | 3480 nM (inactive) | 5210 nM (inactive) | 638 nM (active) | 5730 nM (inactive) | 4800 nM (inactive) | 2390 nM (inactive) | 5480 nM (inactive) | 7500 nM (inactive) | 2250 nM (inactive) | 8470 nM (inactive) | 4170 nM (inactive) | 3740 nM (inactive) | 5080 nM (inactive)
